Test results: the NIST ThermoML archive (doi:10.1016/j.tca.2004.11.022)

Tests used:
[1] = xn = mol fraction of the nth substance listed; settings: 101 kPa, Liquid; for mass density: Vibrating tube method; for speed of sound: Pulse-echo method
[2] = molar heat capacity at constant pressure; xn = mol fraction of the nth substance listed; settings: 101 kPa, Liquid, Small sample (50 mg) DSC

CCCCCCCCC [nonane] + COC(=O)OC
Settings | mass density [kg/m3] | molar heat capacity at constant pressure [J/K/mol] | speed of sound [m/s]
[1], 288.15 K, x2 = 0.05335 | 729.39 | – | –
[1], 288.15 K, x2 = 0.1009 | 736.94 | – | –
[1], 288.15 K, x2 = 0.1998 | 754.47 | – | –
[1], 288.15 K, x2 = 0.2963 | 774.22 | – | –
[1], 288.15 K, x2 = 0.3965 | 798.13 | – | –
[1], 288.15 K, x2 = 0.4978 | 826.3 | – | –
[1], 288.15 K, x2 = 0.5983 | 859.19 | – | –
[1], 288.15 K, x2 = 0.6976 | 897.72 | – | –
[1], 288.15 K, x2 = 0.7982 | 944.58 | – | –
[1], 288.15 K, x2 = 0.8985 | 1002.3 | – | –
[1], 293.15 K, x2 = 0.05335 | 725.45 | – | –
[1], 293.15 K, x2 = 0.1009 | 732.86 | – | –
[1], 293.15 K, x2 = 0.1998 | 750.26 | – | –
[1], 293.15 K, x2 = 0.2963 | 769.82 | – | –
[1], 293.15 K, x2 = 0.3965 | 793.41 | – | –
[1], 293.15 K, x2 = 0.4978 | 821.39 | – | –
[1], 293.15 K, x2 = 0.5983 | 853.92 | – | –
[1], 293.15 K, x2 = 0.6976 | 892.23 | – | –
[1], 293.15 K, x2 = 0.7982 | 938.72 | – | –
[1], 293.15 K, x2 = 0.8985 | 996.2 | – | –
[1], 298.15 K, x2 = 0.05335 | 721.48 | – | 1198.5
[1], 298.15 K, x2 = 0.1009 | 728.79 | – | 1191.8
[1], 298.15 K, x2 = 0.1998 | 746.03 | – | 1180
[1], 298.15 K, x2 = 0.2963 | 765.4 | – | 1170.5
[1], 298.15 K, x2 = 0.3965 | 788.73 | – | 1162.4
[1], 298.15 K, x2 = 0.4978 | 816.45 | – | 1156.8
[1], 298.15 K, x2 = 0.5983 | 848.67 | – | 1153.4
[1], 298.15 K, x2 = 0.6976 | 886.73 | – | 1153.5
[1], 298.15 K, x2 = 0.7982 | 932.9 | – | 1158.2
[1], 298.15 K, x2 = 0.8985 | 990.1 | – | 1171.2
[1], 308.15 K, x2 = 0.05335 | 713.45 | – | –
[1], 308.15 K, x2 = 0.1009 | 720.68 | – | –
[1], 308.15 K, x2 = 0.1998 | 737.48 | – | –
[1], 308.15 K, x2 = 0.2963 | 756.46 | – | –
[1], 308.15 K, x2 = 0.3965 | 779.36 | – | –
[1], 308.15 K, x2 = 0.4978 | 806.49 | – | –
[1], 308.15 K, x2 = 0.5983 | 838.24 | – | –
[1], 308.15 K, x2 = 0.6976 | 875.62 | – | –
[1], 308.15 K, x2 = 0.7982 | 921.26 | – | –
[1], 308.15 K, x2 = 0.8985 | 977.7 | – | –
[2], 288.15 K, x2 = 0.05262 | – | 273.59 | –
[2], 288.15 K, x2 = 0.1012 | – | 267.97 | –
[2], 288.15 K, x2 = 0.1514 | – | 262.27 | –
[2], 288.15 K, x2 = 0.2001 | – | 256.97 | –
[2], 288.15 K, x2 = 0.297 | – | 247.1 | –
[2], 288.15 K, x2 = 0.4018 | – | 237.24 | –
[2], 288.15 K, x2 = 0.452 | – | 232.75 | –
[2], 288.15 K, x2 = 0.5014 | – | 228.4 | –
[2], 288.15 K, x2 = 0.5514 | – | 223.85 | –
[2], 288.15 K, x2 = 0.6024 | – | 218.72 | –
[2], 288.15 K, x2 = 0.6477 | – | 213.45 | –
[2], 288.15 K, x2 = 0.6978 | – | 206.69 | –
[2], 288.15 K, x2 = 0.7944 | – | 191.68 | –
[2], 288.15 K, x2 = 0.845 | – | 183.74 | –
[2], 288.15 K, x2 = 0.9016 | – | 175.65 | –
[2], 288.15 K, x2 = 0.9486 | – | 169.8 | –
[2], 298.15 K, x2 = 0.05262 | – | 277.51 | –
[2], 298.15 K, x2 = 0.1012 | – | 271.68 | –
[2], 298.15 K, x2 = 0.1514 | – | 265.73 | –
[2], 298.15 K, x2 = 0.2001 | – | 260.11 | –
[2], 298.15 K, x2 = 0.297 | – | 249.53 | –
[2], 298.15 K, x2 = 0.4018 | – | 238.51 | –
[2], 298.15 K, x2 = 0.452 | – | 233.42 | –
[2], 298.15 K, x2 = 0.5014 | – | 228.22 | –
[2], 298.15 K, x2 = 0.5514 | – | 222.78 | –
[2], 298.15 K, x2 = 0.6024 | – | 217.1 | –
[2], 298.15 K, x2 = 0.6477 | – | 211.64 | –
[2], 298.15 K, x2 = 0.6978 | – | 205.13 | –
[2], 298.15 K, x2 = 0.7944 | – | 191.78 | –
[2], 298.15 K, x2 = 0.845 | – | 184.48 | –
[2], 298.15 K, x2 = 0.9016 | – | 176.75 | –
[2], 298.15 K, x2 = 0.9486 | – | 170.87 | –
[2], 308.15 K, x2 = 0.05262 | – | 281.91 | –
[2], 308.15 K, x2 = 0.1012 | – | 275.81 | –
[2], 308.15 K, x2 = 0.1514 | – | 269.66 | –
[2], 308.15 K, x2 = 0.2001 | – | 263.87 | –
[2], 308.15 K, x2 = 0.297 | – | 252.77 | –
[2], 308.15 K, x2 = 0.4018 | – | 241.06 | –
[2], 308.15 K, x2 = 0.452 | – | 235.55 | –
[2], 308.15 K, x2 = 0.5014 | – | 230.02 | –
[2], 308.15 K, x2 = 0.5514 | – | 224.27 | –
[2], 308.15 K, x2 = 0.6024 | – | 218.19 | –
[2], 308.15 K, x2 = 0.6477 | – | 212.66 | –
[2], 308.15 K, x2 = 0.6978 | – | 206.01 | –
[2], 308.15 K, x2 = 0.7944 | – | 192.97 | –
[2], 308.15 K, x2 = 0.845 | – | 185.93 | –
[2], 308.15 K, x2 = 0.9016 | – | 178.33 | –
[2], 308.15 K, x2 = 0.9486 | – | 172.4 | –
